Measured values as given in the supplement of paper PMC10307832.

How the values were obtained:
Experiment in all cases: relative viability (nuclei count vs DMSO), 5 days (fraction); higher = more cells survive
[1] = compound: CC1=CC(=NN1)NC2=CC(=NC(=N2)/C=C/C3=CC=CC=C3)N4CCN(CC4)C
Outline: (§1)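 Hoechst staining, done together with fixation and permeabilisation, marked nuclei for 4× imaging and MetaXpress counting. This followed 5 days without medium change after lung cancer cell lines, kept overnight at 37 °C in 1536-well plates, were pinned with five library-drug doses (not always all listed) spaced by √10 on vehicle-anchored plates. Viability is the ratio of treated-well to vehicle-well nuclei, expressed as a median across plates. Plates passed only at control CV below 25% with at least one doubling.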

[2] = compound: COC1=CC(c2cc3ccccc3[nH]2)=N/C1=C\c1[nH]c(C)cc1C [Obatoclax]
Outline: as §1

[3] = compound: CC(C)C[C@H](NC(=O)[C@H](Cc1ccccc1)NC(=O)c1cnccn1)B(O)O [Bortezomib]
Outline: as §1

Cell Line	relative viability ([1]; 0.08 µM)	relative viability ([1]; 0.253 µM)	relative viability ([1]; 0.8 µM)	relative viability ([1]; 2.53 µM)	relative viability ([1]; 8 µM)	relative viability ([2]; 0.01 µM)	relative viability ([2]; 0.03162 µM)	relative viability ([2]; 0.1 µM)	relative viability ([2]; 0.3162 µM)	relative viability ([2]; 1 µM)	relative viability ([3]; 0.0002 µM)	relative viability ([3]; 0.000632 µM)	relative viability ([3]; 0.002 µM)	relative viability ([3]; 0.002 µM, anchor plate)	relative viability ([3]; 0.006325 µM)	relative viability ([3]; 0.02 µM)
PC-3 [JPC-3]	1.03	1.07	1.09	1.04	0.726	1.02	1.01	1.01	0.985	1.02	0.905	0.998	1.04	0.82	0.358	0.231
HCC-44	0.986	1.01	0.933	0.86	0.18	1.01	0.953	0.827	0.929	0.755	0.95	0.968	0.987	0.895	0.869	0.173
NCI-H2405	0.979	0.889	1.06	0.458	0.201	1.07	0.997	–	1.01	1.07	0.96	0.907	0.988	0.939	0.293	0.18
LXF-289	0.993	1.02	0.964	0.863	0.435	0.97	1.03	0.989	0.982	0.951	0.987	0.999	1.04	0.994	0.185	0.0884
LOU-NH91	0.928	1.08	0.991	0.806	0.424	0.974	0.932	0.68	0.853	0.854	0.828	0.825	0.497	0.518	0.307	0.365
A549	0.909	1.04	0.92	0.29	0.0371	0.987	0.942	0.92	0.922	0.575	0.914	0.981	0.939	–	0.0802	0.0522
H3255	0.966	1.05	1.04	0.931	0.473	0.931	0.926	0.896	1	0.959	0.928	1.06	0.951	0.816	0.274	0.291
NCI-H1395	0.916	1.04	0.882	0.431	0.279	1	0.846	0.647	0.838	0.68	0.949	0.866	0.807	–	0.332	0.293
LC-2-ad	1.02	0.996	0.799	0.303	0.177	0.988	0.988	0.81	0.896	0.564	0.877	0.815	0.99	1.01	0.257	0.198
NCI-H838	0.963	1.03	0.846	0.214	0.133	0.995	0.945	0.78	0.904	0.65	0.952	0.955	0.974	0.858	0.253	0.161
Calu-6	0.967	0.991	0.889	0.236	0.141	1	0.994	0.963	0.943	0.488	0.998	0.965	0.974	0.961	0.118	0.0868
SW 900	0.665	0.844	0.856	0.459	0.262	0.887	0.871	0.748	0.703	0.365	0.84	0.932	0.207	–	0.154	0.17
LCLC-97TM1	0.911	0.963	0.912	0.504	0.121	0.988	0.801	1.31	0.856	0.908	0.943	0.729	1.08	0.744	0.439	0.118
HCC-15	1.01	1	1.01	0.524	0.1	0.975	0.948	0.842	1.05	0.816	0.909	1.07	0.996	1.01	0.549	0.0945
CAL-12T	0.977	0.946	0.928	0.339	0.187	0.995	0.955	1	0.483	0.328	0.93	0.971	0.957	1.03	0.49	0.155
NCI-H727	0.835	0.688	0.924	0.441	0.374	1.09	0.88	1.14	0.972	0.658	0.919	1.06	0.897	0.936	0.647	0.171
ABC-1	0.835	0.888	1.16	0.341	0.227	1.05	0.971	0.753	0.828	0.448	0.779	0.566	0.271	0.321	0.216	0.242
NCI-H2023	1.01	1.02	0.859	0.108	0.0691	0.928	0.969	0.946	0.774	0.229	1.02	0.9	1	1.01	0.139	0.0632
NCI-H358	0.847	0.92	0.787	0.203	0.11	0.923	0.911	0.833	0.623	0.319	0.904	0.675	0.874	–	0.131	0.162
SW 1573	0.935	0.952	0.826	0.299	0.0971	1.07	0.957	0.966	0.709	0.257	0.963	0.981	0.947	1.02	0.11	0.0607
NCI-H1993	0.91	0.882	1.27	0.571	0.423	0.92	0.865	1.07	1.03	0.896	0.903	0.935	1.01	1.19	0.493	0.502
NCI-H661	0.986	0.958	1.03	0.708	0.356	0.96	0.962	1.02	0.883	0.842	0.952	0.99	0.989	0.807	0.719	0.228

Cell Line	relative viability ([1]; 0.08 µM)	relative viability ([1]; 0.253 µM)	relative viability ([1]; 0.8 µM)	relative viability ([1]; 2.53 µM)	relative viability ([1]; 8 µM)	relative viability ([2]; 0.01 µM)	relative viability ([2]; 0.03162 µM)	relative viability ([2]; 0.1 µM)	relative viability ([2]; 0.3162 µM)	relative viability ([2]; 1 µM)	relative viability ([3]; 0.0002 µM)	relative viability ([3]; 0.000632 µM)	relative viability ([3]; 0.002 µM)	relative viability ([3]; 0.002 µM, anchor plate)	relative viability ([3]; 0.006325 µM)	relative viability ([3]; 0.02 µM)
UMC-11	0.928	0.904	0.693	0.187	0.141	1.02	0.962	0.843	0.921	0.554	0.896	0.927	0.946	0.757	0.668	0.185
NCI-H520	0.975	1.04	0.871	0.261	0.126	0.993	0.791	1.07	0.976	0.774	1.08	0.956	0.654	0.622	0.172	0.169
ChaGo-K-1	0.953	1.01	0.976	0.647	0.289	0.997	0.829	1.01	0.931	1.06	0.993	0.814	1.01	1.08	0.594	0.213
NCI-H2085	1.04	1.05	0.95	0.695	0.323	0.962	0.975	0.9	0.943	0.56	0.979	0.978	0.993	1.07	0.617	0.23
NCI-H1651	1.03	0.992	0.939	0.712	0.288	0.954	0.957	1.07	0.847	0.754	0.992	0.969	0.727	0.943	0.173	0.121
RERF-LC-KJ	0.979	0.964	0.932	0.555	0.279	0.98	1.03	0.989	0.924	0.715	0.995	0.949	1.02	1.11	0.366	0.239
NCI-H1755	1.03	1.05	1.02	0.722	0.443	0.981	0.975	0.884	0.994	0.964	1.01	0.96	1.02	0.963	0.378	0.224
NCI-H2170	0.971	1.04	0.868	0.77	0.266	0.942	0.979	1.01	0.961	0.977	0.96	0.824	1.07	–	0.815	0.177
NCI-H2126	0.993	1.04	0.961	0.875	0.41	1.03	0.959	0.931	0.989	0.918	0.968	1.02	1.03	1.1	0.924	0.749
EPLC-272H	0.819	1.09	0.908	0.404	0.35	0.99	0.924	0.96	0.675	0.339	0.8	0.652	0.871	0.902	0.66	0.105
NCI-H1975	0.954	0.956	0.984	0.458	0.152	1.02	0.865	–	0.977	0.717	0.902	0.858	0.239	0.395	0.153	0.158
NCI-H3122	1.01	0.857	0.982	0.956	0.308	0.985	0.931	0.927	0.984	1.01	1	0.957	1.07	1	0.825	0.149
COR-L 105	0.848	1	0.891	0.301	0.27	0.884	1.08	0.992	0.69	0.436	0.855	0.936	0.797	0.931	0.292	0.314
BEN	0.921	0.974	0.998	0.618	0.224	1.02	0.821	0.727	0.922	0.953	0.91	0.991	0.954	0.843	0.704	0.274
NCI-H1915	1	0.96	0.96	0.705	0.22	0.973	0.949	0.898	0.999	0.941	0.948	1	1.09	0.96	0.91	0.0999
NCI-H1703	0.825	0.912	0.575	0.19	0.135	0.955	0.846	0.858	0.72	0.542	1.15	0.757	0.356	0.338	0.132	0.119
NCI-H1650	0.86	1.05	0.972	0.185	0.101	0.938	0.981	0.879	0.646	0.34	0.751	0.805	0.2	0.206	0.161	0.167
NCI-H2009	0.995	0.95	0.997	0.646	0.243	0.958	1.02	0.85	0.626	0.301	1.01	0.977	1.07	0.971	0.0869	0.0749
COR-L23	1.03	1.1	0.976	0.237	0.116	1.01	1.07	0.945	0.375	0.27	0.97	0.948	0.964	0.971	0.0694	0.071
NCI-H460	1.01	1.03	1.01	0.597	0.0321	1	0.936	0.882	0.746	0.56	0.971	0.97	1.03	1.09	0.542	0.0702
NCI-H522	0.917	0.89	0.962	0.554	0.444	0.951	0.894	0.861	0.876	0.904	0.947	0.745	1.02	–	0.638	0.415
